In EP0568946A1, “Compound TAN-1607A, its derivatives, their production, and use thereof” (TAKEDA CHEMICAL INDUSTRIES, LTD., priority 1992, dated 1993):

Test system: mice
Test: Acute toxicity test using mice
Type: in vivo
Settings: 100 mg/kg administered intraperitoneally
Experimental: Further, no mice died in an acute toxicity test using mice in which the compound TAN-1607A (100 mg/kg) was administered intraperitoneally.

`CC(=O)OC(CCCC12OC(C(=O)O)C(O)(C(=O)O)C(C(=O)O)(O1)C(OC(=O)CCCCCCCC/C=C/c1ccccc1)C2O)C(C)C/C=C/c1ccccc1` (stereo not shown) [TAN-1607A] was tested, and the “acute toxicity (mortality)” value was “no mice died”.
